Measured values reported in patent US20100173835A1, “Peptides for Treatment of Obesity” (Novo Nordisk A/S, priority 2008, published 2010).
Converted amounts (≈) assume the structure as drawn. Where two headings read alike, the source gives them in different places. *1 amine or outer side, *2 acyl side, *3 side chain or, on linkers, in order; H or OH if unused. Where a SMILES comes first, the peptide text is derived from it. Bridges are numbered along the chain shown (N, C = ends). [ ]: non-standard residue; d: D form. The star is where a group is joined. Palmitoyl(16-(5-tetrazolyl)) = O=C(CCCCCCCCCCCCCCCc1nnn[nH]1)*; Lys(CH2CO2H)2 = N[C@@H](CCCCN(CC(=O)O)CC(=O)O)C(=O)O; X1 = O=C(O)CN(CC(=O)O)C[C@H](N[*:1])C(=O)[*:2]; C20 diacid = O=C(O)CCCCCCCCCCCCCCCCCCC(=O)*; Hyp = O=C(O)[C@@H]1C[C@@H](O)CN1; NTA = O=C(O)CN(CC(=O)O)CC(=O)*; Nle = CCCC[C@H](N)C(=O)O; Dab = NCC[C@H](N)C(=O)O; Dap = NC[C@H](N)C(=O)O; AEEA = NCCOCCOCC(=O)O; βAla = NCCC(=O)O

Experiments:
human MC4 receptor = biological target: T1, human MC4 receptor (Homo sapiens, UniProt P32245); experiment: Assay (V) Melanocortin Receptor 4 (MC4) binding assay; conditions: 125NDP-α-MSH binding, BHK cell membranes
T1 construct: expressed in transfected cells
T1 sequence (P32245 whole entry): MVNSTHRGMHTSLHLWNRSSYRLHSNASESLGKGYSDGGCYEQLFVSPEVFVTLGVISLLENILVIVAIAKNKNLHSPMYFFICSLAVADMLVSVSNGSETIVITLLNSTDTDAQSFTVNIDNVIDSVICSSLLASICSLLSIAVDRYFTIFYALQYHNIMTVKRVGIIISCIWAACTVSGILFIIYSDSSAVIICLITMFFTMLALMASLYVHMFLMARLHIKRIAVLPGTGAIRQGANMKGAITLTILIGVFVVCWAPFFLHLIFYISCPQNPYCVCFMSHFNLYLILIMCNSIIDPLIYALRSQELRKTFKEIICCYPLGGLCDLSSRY
Procedure: Assay (V)—Melanocortin Receptor 4 (MC4) Binding Assay
In vitro ^125NDP-α-MSH binding to recombinant BHK cells expressing human MC4 receptor (filtration assay).
The assay is performed in 5 ml minisorb vials (Sarstedt No. 55.526) or in 96-well filterplates (Millipore MADVN 6550), and using BHK cells expressing the human MC4 receptor using BHK cells stably expressing the human MC4 receptor. The membranes were prepared from frozen or fresh cells that were homogenized in 20 mM HEPES pH 7.1, 5 mM MgCl2 and 1 mg/ml bacitracin and centrifuged at 15000 rpm at 4° C., 10 min in a Sorvall RC 5B plus, SS-34 rotor. The supernatant was discarded, and the pellets were re-suspended in buffer, homogenized and centrifuged two more times. The final pellets were resuspended in the buffer mentioned above, and the protein concentration was measured and adjusted with buffer to 14 to 17 mg/ml and the membrane preparation were kept at −80° C. until assay. The assay was run directly on a dilution of this cell membrane suspension, without any further preparation. The BHK cell membranes are kept at −80° C. until assay, and the assay is run directly on a dilution of this cell membrane suspension, without further preparation. The suspension is diluted to give maximally 10% specific binding, i.e. to approx. 50-100 fold dilution. The assay is performed in a total volume of 200 μl: 50 μl of cell suspension, 50 μl of ^125NDP-α-MSH (≈79 pM in final concentration), 50 μl of test compound and 50 μl binding buffer (pH 7) mixed and incubated for 2 h at 25° C. [binding buffer: 25 mM HEPES, pH 7.0, 1 mM CaCl2, 1 mM MgSO4, 1 mM EGTA, 0.02% Bacitracin, 0.005% Tween™ 20 and 0.1% HSA or, alternatively, 0.1% ovalbumin (Sigma; catalogue No. A-5503)]. Test compounds are dissolved in DMSO and diluted in binding buffer. Radiolabelled ligand and membranes are diluted in binding buffer. The incubation is stopped by dilution with 2×100 μl ice-cold 0.9% NaCl. The radioactivity retained on the filters is counted using a Cobra II auto gamma counter.
(§1) The data are analysed by non-linear regression analysis of binding curves, using the Windows™ program GraphPad™ Prism (GraphPad Software, USA).

MC1 receptor = biological target: T2, MC1 receptor (Homo sapiens, UniProt Q01726); experiment: Assay (IV) Melanocortin Receptor 1 (MC1) binding assay
T2 construct: expressed in transfected cells
T2 sequence (Q01726 whole entry): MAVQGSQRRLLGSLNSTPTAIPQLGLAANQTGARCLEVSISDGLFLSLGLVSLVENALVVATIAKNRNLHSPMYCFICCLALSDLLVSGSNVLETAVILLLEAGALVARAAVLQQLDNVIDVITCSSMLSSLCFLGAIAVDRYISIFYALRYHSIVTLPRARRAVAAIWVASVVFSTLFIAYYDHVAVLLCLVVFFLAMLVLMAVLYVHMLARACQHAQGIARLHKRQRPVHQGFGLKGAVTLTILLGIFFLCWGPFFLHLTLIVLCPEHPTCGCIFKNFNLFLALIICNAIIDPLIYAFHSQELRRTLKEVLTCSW
Procedure: Assay (IV)—Melanocortin Receptor 1 (MC1) Binding Assay
The MC1 receptor binding assay is performed on BHK cell membranes stably expressing the MC1 receptor. The assay is performed in a total volume of 250 NI: 25 μl of ^125NDP-α-MSH (22 pM in final concentration), 25 μl of test compound/control and 200 μl of cell membrane (25 μg/ml). Test compounds are dissolved in DMSO. Radioactively labeled ligand, membranes and test compounds are diluted in buffer: 25 mM HEPES, pH 7.4, 0.1 mM CaCl2, 1 mM MgSO4, 1 mM EDTA, 0.1% HSA and 0.005% Tween™ 20. Alternatively, HSA may be substituted with ovalbumin. The samples are incubated at 30° C. for 90 min. in Costar round-bottom microtiter plates. Incubation is terminated by filtration on a Packard harvester filtermate. Rapid filtration through Packard Unifilter-96 GF/B filters pre-treated with polyethylenimine (PerkinElmer 6005277). The filters are washed with ice-cold 0.9% NaCl 8-10 times. The plates is air dried at app. 55° C. for 30 min, and 50 μl Microscint 0 (Packard, cat. No. 6013616) is added to each well. The plates are counted in a Topcounter (1 min/well).
as §1

[1] = Solubility data of compounds in water over the pH range; format: physicochemical; conditions: read-out: Conc (solubility in water)
[2] = 125NDP-α-MSH binding, BHK cell membranes, read-out: Assay (IV) MC1 Ki

With `CCCC[C@H](NC(=O)[C@H](CNC(=O)CN(CC(=O)O)CC(=O)O)NC(=O)[C@H](CO)NC(=O)[C@H](CCC(N)=O)NC(=O)[C@H](CO)NC(=O)CNC(=O)COCCOCCNC(=O)CCCCCCCCCCCCCCCc1nnn[nH]1)C(=O)N[C@H]1CCC(=O)NCCCC[C@@H](C(N)=O)NC(=O)[C@H](Cc2c[nH]c3ccccc23)NC(=O)[C@H](CCCNC(=N)N)NC(=O)[C@@H](Cc2ccccc2)NC(=O)[C@@H]2C[C@@H](O)CN2C1=O` [Example 4, (2-{2-[16-(Tetrazol-5-yl)hexadecanoylamino]ethoxy}ethoxy)acetyl-Gly-Ser-Gln-Ser-Dap(BCMA)-Nle-c[Glu-Hyp-D-Phe-Arg-Trp-Lys]-NH2] ({Palmitoyl(16-(5-tetrazolyl))-AEEA}-GSQS[Dap](NTA)[Nle]E[Hyp][dF]RWK-NH2; lactam 7-12) the Ki (human MC4 receptor; Assay (V) MC4 [Ki] (nM)) was 5.67 nM and the Ki (MC1 receptor) was 4800 nM.
`CCCC[C@H](NC(=O)[C@H](CNC(=O)CN(CC(=O)O)CC(=O)O)NC(=O)[C@H](Cc1cnc[nH]1)NC(=O)[C@H](CCC(N)=O)NC(=O)[C@H](CO)NC(=O)CNC(=O)COCCOCCNC(=O)CCCCCCCCCCCCCCCc1nnn[nH]1)C(=O)N[C@H]1CCC(=O)NCCCC[C@@H](C(N)=O)NC(=O)[C@H](Cc2c[nH]c3ccccc23)NC(=O)[C@H](CCCN=C(N)N)NC(=O)[C@@H](Cc2ccccc2)NC(=O)[C@@H]2C[C@@H](O)CN2C1=O` [Example 9, (2-{2-[16-(Tetrazol-5-yl)hexadecanoylamino]ethoxy}ethoxy)acetyl-Gly-Ser-Gln-His-Dap(BCMA)-Nle-c[Glu-Hyp-D-Phe-Arg-Trp-Lys]-NH2] ({Palmitoyl(16-(5-tetrazolyl))-AEEA}-GSQH[Dap](NTA)[Nle]E[Hyp][dF]RWK-NH2; lactam 7-12) showed a Ki (human MC4 receptor; Assay (V) MC4 [Ki] (nM)) of 0.58 nM and a Ki (MC1 receptor) of 2670 nM.
For `CCCC[C@H](NC(=O)[C@H](CCNC(=O)CN(CC(=O)O)CC(=O)O)NC(=O)[C@H](Cc1c[nH]cn1)NC(=O)[C@H](CCC(N)=O)NC(=O)[C@H](CO)NC(=O)CNC(=O)COCCOCCNC(=O)CCCCCCCCCCCCCCCc1nnn[nH]1)C(=O)N[C@H]1CCC(=O)NCCCC[C@@H](C(N)=O)NC(=O)[C@H](Cc2c[nH]c3ccccc23)NC(=O)[C@H](CCCNC(=N)N)NC(=O)[C@@H](Cc2ccccc2)NC(=O)[C@@H]2C[C@@H](O)CN2C1=O` [Example 10, (2-{2-[16-(Tetrazol-5-yl)hexadecanoylamino]ethoxy}ethoxy)acetyl-Gly-Ser-Gln-His-Dab(BCMA)-Nle-c[Glu-Hyp-D-Phe-Arg-Trp-Lys]-NH2] ({Palmitoyl(16-(5-tetrazolyl))-AEEA}-GSQH[Dab](NTA)[Nle]E[Hyp][dF]RWK-NH2; lactam 7-12), the Ki (human MC4 receptor; read-out: Assay (V) MC4 [Ki]) was 1.05 nM and the Ki (MC1 receptor; [2]) was > 10000 nM.
With `CCCC[C@H](NC(=O)[C@H](CN(CC(=O)O)CC(=O)O)NC(=O)[C@H](Cc1c[nH]cn1)NC(=O)[C@H](CCC(N)=O)NC(=O)[C@H](CO)NC(=O)CNC(=O)COCCOCCNC(=O)CCCCCCCCCCCCCCCc1nnn[nH]1)C(=O)N[C@H]1CCC(=O)NCCCC[C@@H](C(N)=O)NC(=O)[C@H](Cc2c[nH]c3ccccc23)NC(=O)[C@H](CCCNC(=N)N)NC(=O)[C@@H](Cc2ccccc2)NC(=O)[C@@H]2C[C@@H](O)CN2C1=O` [Example 6, (2-{2-[16-(Tetrazol-5-yl)hexadecanoylamino]ethoxy}ethoxy)acetyl-Gly-Ser-Gln-His-Dap(biscarboxymethyl)-Nle-c[Glu-Hyp-D-Phe-Arg-Trp-Lys]-NH2] ({Palmitoyl(16-(5-tetrazolyl))-AEEA}-GSQH[X1][Nle]E[Hyp][dF]RWK-NH2; lactam 7-12) the Ki (human MC4 receptor; Assay (V) MC4 [Ki] (nM)) was 2.9 nM and the Ki (MC1 receptor) was 5860 nM.
With `CCCC[C@H](NC(=O)[C@H](CN(CC(=O)O)CC(=O)O)NC(=O)[C@H](Cc1ccc(O)cc1)NC(=O)[C@H](CCC(N)=O)NC(=O)[C@H](CO)NC(=O)CNC(=O)COCCOCCNC(=O)CCCCCCCCCCCCCCCc1nnn[nH]1)C(=O)N[C@H]1CCC(=O)NCCCC[C@@H](C(N)=O)NC(=O)[C@H](Cc2c[nH]c3ccccc23)NC(=O)[C@H](CCCNC(=N)N)NC(=O)[C@@H](Cc2ccccc2)NC(=O)[C@@H]2C[C@@H](O)CN2C1=O` [Example 23, (2-{2-[16-(Tetrazol-5-yl)hexadecanoylamino]ethoxy}ethoxy)acetyl-Gly-Ser-Gln-Tyr-Dap(biscarboxymethyl)-Nle-c[Glu-Hyp-D-Phe-Arg-Trp-Lys]-NH2] ({Palmitoyl(16-(5-tetrazolyl))-AEEA}-GSQY[X1][Nle]E[Hyp][dF]RWK-NH2; lactam 7-12) the Ki (human MC4 receptor; read-out: Assay (V) MC4 [Ki]) was 7.9 nM and the Ki (MC1 receptor; [2]) was > 10000 nM.
In the case of `CCCC[C@H](NC(=O)CCNC(=O)[C@H](CCCCN(CC(=O)O)CC(=O)O)NC(=O)[C@H](Cc1c[nH]cn1)NC(=O)[C@H](CCC(N)=O)NC(=O)[C@H](CO)NC(=O)[C@H](CO)NC(=O)[C@H](CCC(N)=O)NC(=O)[C@@H](CO)NC(=O)CNC(=O)COCCOCCNC(=O)COCCOCCNC(=O)CCCCCCCCCCCCCCCCCCC(=O)O)C(=O)N[C@H]1CCC(=O)NCCCC[C@@H](C(N)=O)NC(=O)[C@H](Cc2c[nH]c3ccccc23)NC(=O)[C@H](CCCNC(=N)N)NC(=O)[C@@H](Cc2ccccc2)NC(=O)[C@@H]2C[C@@H](O)CN2C1=O` [Example 22, {2-[2-(2-{2-[2-(19-Carboxynonadecanoylamino)ethoxy]ethoxy}acetylamino)ethoxy]ethoxy}acetyl-Gly-D-Ser-Gln-Ser-Ser-Gln-His-Lys(biscarboxymethyl)β-Ala-Nle-c[Glu-Hyp-D-Phe-Arg-Trp-Lys]-NH2] ({C20 diacid-AEEA-AEEA}-G[dS]QSSQH[Lys(CH2CO2H)2][βAla][Nle]E[Hyp][dF]RWK-NH2; lactam 11-16), the Ki (human MC4 receptor; Assay (V) MC4 [Ki] (nM)) is reported as 0.55 nM and the Ki (MC1 receptor) is reported as > 10000 nM.
`CCCC[C@H](NC(=O)[C@H](CCCCN(CC(=O)O)CC(=O)O)NC(=O)CCNC(=O)[C@H](Cc1c[nH]cn1)NC(=O)[C@H](CCC(N)=O)NC(=O)[C@H](CO)NC(=O)[C@H](CO)NC(=O)[C@H](CCC(N)=O)NC(=O)[C@@H](CO)NC(=O)CNC(=O)COCCOCCNC(=O)COCCOCCNC(=O)CCCCCCCCCCCCCCCc1nnn[nH]1)C(=O)N[C@H]1CCC(=O)NCCCC[C@@H](C(N)=O)NC(=O)[C@H](Cc2c[nH]c3ccccc23)NC(=O)[C@H](CCCNC(=N)N)NC(=O)[C@@H](Cc2ccccc2)NC(=O)[C@@H]2C[C@@H](O)CN2C1=O` [Example 12, (2-{2-[2-(2-{2-[16-(Tetrazol-5-yl)hexadecanoylamino]ethoxy}ethoxy)acetylamino]ethoxy}ethoxy)acetyl-Gly-D-Ser-Gln-Ser-Ser-Gln-His-β-Ala-Lys(biscarboxymethyl)-Nle-c[Glu-Hyp-D-Phe-Arg-Trp-Lys]-NH2] ({Palmitoyl(16-(5-tetrazolyl))-AEEA-AEEA}-G[dS]QSSQH[βAla][Lys(CH2CO2H)2][Nle]E[Hyp][dF]RWK-NH2; lactam 11-16) gave a solubility at 3 days ([1]; pH 3.1, pH 3.10) of 409 µM (≈ 1060 µg/mL), a solubility at 3 days ([1]; pH 4.11, pH 4.11) of 374 µM (≈ 971 µg/mL) and a solubility at 3 days ([1]; pH 4.69, pH 4.69) of 395 µM (≈ 1030 µg/mL). The solubility at 3 days ([1]; pH 4.82, pH 4.82) was 268 µM (≈ 696 µg/mL), the solubility at 3 days ([1]; pH 5.07, pH 5.07) was 136 µM (≈ 353 µg/mL) and the solubility at 3 days ([1]; pH 5.56, pH 5.56) was 43 µM (≈ 112 µg/mL). It also gave a solubility at 3 days ([1]; pH 6.71, pH 6.71) of 58 µM (≈ 151 µg/mL), a solubility at 3 days ([1]; pH 6.71) of 87 µM (≈ 226 µg/mL) and a solubility at 3 days ([1]; pH 6.99) of 119 µM (≈ 309 µg/mL). It also gave a solubility at 3 days ([1]; pH 7.15, pH 7.15) of 210 µM (≈ 545 µg/mL), a solubility at 3 days ([1]; pH 7.72, pH 7.72) of 256 µM (≈ 665 µg/mL) and a Ki (human MC4 receptor; Assay (V) MC4 [Ki] (nM)) of 2.85 nM.
